Test results: the CheMixHub viscosity set

Experiment: xn = mol fraction of the nth substance listed

CS(C)=O + CC#N
viscosity [mPa·s], 101 kPa
Conditions	298 K	298.15 K	303.15 K	308 K	308.15 K	313.15 K	318 K	318.15 K
x1 = 0.2	0.5206	0.477	–	–	–	–	0.3814	–
x1 = 0.4	0.8409	0.687	–	0.6302	–	–	0.4513	–
x1 = 0.6	1.16	0.987	–	0.8402	–	–	–	–
x1 = 0.8	1.42	1.42	–	1.161	–	–	0.8203	–
x2 = 0.0249	–	1.911	1.762	–	1.61	1.484	–	1.348
x2 = 0.0518	–	1.824	1.684	–	1.544	1.425	–	1.295
x2 = 0.0759	–	1.75	1.617	–	1.485	1.371	–	1.247
x2 = 0.1079	–	1.658	1.531	–	1.405	1.298	–	1.18
x2 = 0.157	–	1.527	1.406	–	–	–	–	1.082
x2 = 0.1998	–	1.422	1.306	–	1.194	1.098	–	1
x2 = 0.2609	–	1.281	–	–	1.066	0.9759	–	0.8875
x2 = 0.3034	–	1.188	1.085	–	0.9838	0.898	–	0.8161
x2 = 0.3548	–	1.082	0.9867	–	0.8905	0.8098	–	0.7348
x2 = 0.411	–	0.9742	0.8848	–	0.7978	0.7219	–	0.6547
x2 = 0.4696	–	0.8699	0.7875	–	0.7092	0.6398	–	0.5794
x2 = 0.5084	–	0.8053	0.7285	–	0.6554	0.591	–	0.5348
x2 = 0.5566	–	0.7292	0.6595	–	0.5949	0.5366	–	0.4864
x2 = 0.6053	–	0.6586	0.5945	–	0.5379	0.4862	–	0.4403
x2 = 0.6666	–	0.5821	0.5266	–	0.4786	0.435	–	0.3971
x2 = 0.7114	–	0.5345	0.4841	–	0.4428	0.4044	–	0.37
x2 = 0.7688	–	0.4819	0.4392	–	0.4048	0.3727	–	0.3423
x2 = 0.8081	–	0.4514	0.4129	–	0.3833	0.3554	–	0.3298
x2 = 0.851	–	0.4225	0.3905	–	0.3645	0.3396	–	0.3178
x2 = 0.9009	–	0.3934	0.368	–	0.3459	0.3257	–	0.3062
x2 = 0.9502	–	0.3658	0.3478	–	0.3285	–	–	–

CS(C)=O + OCCO
viscosity [mPa·s]
Conditions	298.15 K	303.15 K	308.15 K	313.15 K	318.15 K	323.15 K
100 kPa, x1 = 0.105	12.96	10.76	8.98	7.61	6.51	5.63
100 kPa, x1 = 0.1987	10.61	8.91	7.45	6.39	5.54	4.82
100 kPa, x1 = 0.2971	8.58	7.31	6.14	5.32	4.51	4.09
100 kPa, x1 = 0.3911	6.94	5.97	5.09	4.45	3.86	3.48
100 kPa, x1 = 0.5099	5.28	4.59	4.03	3.56	3.02	2.84
100 kPa, x1 = 0.5932	4.45	3.93	3.46	3.07	2.72	2.48
100 kPa, x1 = 0.702	3.68	3.26	2.91	2.61	2.45	2.13
100 kPa, x1 = 0.7931	3.21	2.86	2.58	2.32	2.24	1.91
100 kPa, x1 = 0.9003	2.74	2.46	2.21	2	1.92	1.67
101 kPa, x1 = 0.0799	–	–	10.2	–	–	–
101 kPa, x1 = 0.206	–	–	9.506	–	–	–
101 kPa, x1 = 0.3426	–	–	8.715	–	–	–
101 kPa, x1 = 0.4387	–	–	8.143	–	–	–
101 kPa, x1 = 0.5397	–	–	7.399	–	–	–
101 kPa, x1 = 0.6459	–	–	6.235	–	–	–
101 kPa, x1 = 0.7517	–	–	4.953	–	–	–
101 kPa, x1 = 0.8456	–	–	3.731	–	–	–
101 kPa, x1 = 0.9271	–	–	2.599	–	–	–
101 kPa, x2 = 0.0621	2.42	2.19	1.98	1.8	1.63	1.5
101 kPa, x2 = 0.1227	3.05	2.66	2.43	2.24	2.02	1.84
101 kPa, x2 = 0.1819	4.26	3.66	3.21	2.8	2.51	2.27
101 kPa, x2 = 0.2394	5.61	4.72	4.02	3.49	3.06	2.73
101 kPa, x2 = 0.2958	7.14	5.91	4.88	4.19	3.56	3.14
101 kPa, x2 = 0.3504	8.45	7.01	5.72	4.83	4.12	–
101 kPa, x2 = 0.404	9.69	7.96	6.43	5.48	4.63	–
101 kPa, x2 = 0.4562	10.8	8.81	7.13	6.01	5.11	–
101 kPa, x2 = 0.5076	11.7	9.54	7.73	6.52	5.52	–
101 kPa, x2 = 0.5568	12.6	10.2	8.27	6.95	5.88	–
101 kPa, x2 = 0.6061	13.3	10.7	8.72	7.33	6.2	–
101 kPa, x2 = 0.6537	14	11.2	9.12	7.65	6.49	–
101 kPa, x2 = 0.7004	14.6	11.6	9.44	7.94	6.72	–
101 kPa, x2 = 0.7461	15.1	12	9.75	8.22	6.93	–
101 kPa, x2 = 0.7906	15.5	12.4	9.99	8.48	7.15	–
101 kPa, x2 = 0.8342	16	12.8	10.2	8.71	7.33	–
101 kPa, x2 = 0.8769	16.5	13.1	10.5	8.95	7.53	–
101 kPa, x2 = 0.9189	16.9	13.4	10.9	9.2	7.71	–
101 kPa, x2 = 0.9599	17.3	13.7	11.1	9.41	7.9	–
